# Measured values as given in US20260043057A1, “ENZYMATIC SYNTHESIS OF MYCOSPORINE-LIKE AMINO ACIDS” (University of Florida Research Foundation, Incorporated, priority 2022, published 2026).
# Assays:
# [1] = Maximal UV absorbance of MAAs by HPLC with PDA detector; format: physicochemical; details: compound produced in engineered E. coli, methanolic extract of cell pellets
# Protocol: HPLC and LC-MS Analysis. Samples were analyzed on a Shimadzu Prominence UHPLC system (Kyoto, Japan) coupled with a PDA detector. The compounds were separated on a Phenomenex Luna C8 column (4.6×250 mm, 5 μm) using the following HPLC program: 2% B for 15 min, 2-90% B gradient in 2 min, 90% B for 2 min, 90-2% in 2 min, and re-equilibration in 2% B for 6 min. The A phase was 0.1 M triethylammonium acetate pH 7.0 and the B phase was methanol. The flow rate was set at 0.5 mL/min. In the quantitative analysis of relative activity of MysD with different amino acid substrates, water containing 0.1% formic acid was used as phase A to fully separate MG with MG-Ala. LC-HRMS and HRMS/MS experiments were conducted on Thermo Scientific™ Q Exactive Focus mass spectrometer with Dionex™ Ultimate™ RSLC 3000 uHPLC system, equipped with H-ESI II probe on Ion Max API Source. Methanol (B)/Water (A) containing 0.1% formic acid were used as mobile phases, and the same LC program was used as in the HPLC analysis. The eluents from the first 3 min were diverted to waste by a diverting valve. MS1 signals were acquired under the Full MS positive ion mode covering a mass range of m/z 150-2000, with resolution at 35,000 and AGC target at 1e6. Fragmentation was obtained with the Parallel Reaction Monitoring (PRM) mode using an inclusion list of calculated parental ions. The AGC target was set at 5e4 for MS2. Precursor ions were selected in the quadrapole typically with an isolation width of 3.0 m/z and fragmented in the HCD cell at a collision energy (CE) of 30. For some ions, the isolation width was 2.0 m/z and step-wise CE of 15, 20, and 25 were used.
# HPLC and LC-HRMS analysis. Samples were analyzed on a Shimadzu Prominence UHPLC system (Kyoto, Japan) coupled with a PDA detector. Unless stated elsewhere, the following HPLC procedure was performed. The compounds were separated on a Phenomenex Luna C8 column (4.6×250 mm, 5 μm) using the following HPLC program: 2% B for 15 min, 2-90% B gradient in 2 min, 90% B in 2 min, 90-2% in 2 min, and re-equilibration in 2% B for 6 min. The A phase was water with 0.1 M triethylamine acetate (TEAA) at pH 7 and the B phase was methanol. The flow rate was set at 0.5 mL/min. LC-HRMS and HRMS/MS experiments were conducted on a Thermo Scientific Q Exactive Focus mass spectrometer with a Dionex Ultimate RSLC 3000 uHPLC system, equipped with the H-ESI II probe on an Ion Max API Source. Methanol (B)/water (A) containing 0.1% formic acid were used as mobile phases. The eluents from the first 3 min were diverted to waste by a diverting valve. MS1 signals were acquired under the Full MS positive ion mode, covering a mass range of m/z 150-2000, with resolution at 35 000 and AGC target at 1×10^6.
# MysD = MysD reaction with MG and amino acid substrates (substrate preference); format: biochemical, Nostoc linkia NIES-25; details: for consumption level of MG in the MysD reaction relative to that with L-Thr (set as 100%): L-Thr and L-Ser 8 min, other amino acids 30 min, from produced disubstituted MAAs; for consumption of MG in the MysD reaction: optimal conditions, after 3 h
# Protocol: The current and previous heterologous expression studies supported the function of MysD in the biosynthesis of disubstituted MAAs (FIG. 3).^29,35 To further characterize its catalytic properties, recombinant His6-tagged MysD of N. linkia NIES-25 was prepared from E. coli after a single affinity purification (FIG. 21). The enzyme reaction was performed with MysD (0.5 μM), MG (50 μM), and L-Thr (1 mM) in the presence of ATP (1 mM) and Mg^2+ (10 mM) at room temperature for 2 h. […] No product was formed in the control reactions without enzyme or ATP (FIG. 5A). The requirement of ATP for the MysD reaction supports its prediction as the D-Ala-D-Ala ligase-like enzyme of the ATP grasp superfamily.^29 The optimal temperature and pH of its reaction were determined at 37° C. and pH=8.5 (FIG. 22). Under these optimal reaction conditions, all 20 natural amino acids were screened (5 mM) along with MG (50 μM) in the MysD reaction. […] LC-HRMS and MS/MS analysis indicated the formation of their corresponding disubstituted MAAs, MG-Ala, MG-Arg (observed [M+H]^+: 402.1977; calculated [M+H]^+: 402.1983), MG-Cys (observed [M+H]^+: 349.1059; calculated [M+H]^+: 349.1064), mycosporine-2-Gly (observed [M+H]^+: 303.1182; calculated [M+H]^+: 303.1187), shinorine, and porphyra-334 (FIGS. 24, 25, and 26). […] Nonetheless, the result of this biochemical study well agreed with the production of porphyra-334 along with small amounts of shinorine and MG-Ala in the above heterologous expression study (FIG. 3C). To further understand MysD's substrate preference, the enzyme concentration was lowered to 0.25 μM. […] The consumed MG level in this reaction was set as 100% to normalize its level in the five other reactions, which was determined from the concentrations of produced disubstituted MAAs in the reactions (FIG. 5C). […] Together, the results of these biochemical studies highlight the broad substrate scope of MysD and its strong preference toward L-Thr in the MAA biosynthesis.
# MysD Reaction. MG was purified from extracts of E. coli expressing MysAB2C by HPLC and used as the substrate for the MysD reactions. The quality of MG was calculated based on its reported extinction coefficient (28,100 M^−1cm^−1). The initial MysD reactions included MG (50 μM), L-Thr (1 mM), Mg^2+ (10 mM), and ATP (1 mM) in 100 mM Tris-Cl, pH 7.5. The reactions were initiated by adding MysD (0.5 μM) and then incubated at room temperature for 2 h. The control reactions omitted MysD or ATP. All reactions were quenched by heat inactivation at 95° C. for 10 min. After centrifugation at 20,000×g for 15 min, the clear supernatants were collected for HPLC and LC-HRMS analysis. To determine the optimal reaction conditions, the MysD reaction was performed in 100 mM buffer with a pH of 6.5 to 11 at 16 to 60° C. for 6 min. To explore the substrate scope of MysD, all 20 natural amino acids (5 mM) were screened in the above reaction mixtures under the optimal conditions for 3 h. The reactions were terminated and then analyzed in the HPLC and/or LC-MS analysis. To determine the relative activity of six identified amino acids as MysD's substrates, a two-step strategy was used. First, the reactions were performed with 0.25 μM MysD for 8 min, which led to no more than 50% consumption of MG into porphyra-334 with the best substrate L-Thr and into shinorine with L-Ser. For the other four amino acids, the levels of their corresponding disubstituted MAAs were determined after the reaction time was elongated to 30 min. All reactions were performed in at least two independent replicates.
# [2] = reported value used to quantify MG; cited from earlier work
# MysH = MysH reaction steady-state kinetics with porphyra-334; format: biochemical, Nostoc linckia NIES-25; details: 20 to 1000 uM porphyra-334, 0.5 uM MysH, room temperature, 30 min, pH 7.5
# Protocol: To further characterize the catalytic properties of MysH, the recombinant MysH of Nostoc linckia NIES-25 was prepared with a C-terminal His6-tag in E. coli after a single Ni-NTA affinity purification (FIG. 33A). The MysH reaction contained 50 mM Tris-Cl at pH 7.5, 0.5 uM MysH, 50 uM porphyra-334, 1 mM 2-oxoglutarate (2OG), 1 mM Fe(NH4)2(SO4)2, 10 mM ascorbate, and the reaction was performed at room temperature overnight. MysH successfully converted porphyra-334 into palythine-Thr in the HPLC analysis, while the complete conversion was not achieved with a higher enzyme concentration or a longer reaction time. […] To improve the reaction conversion, different concentrations of 2OG, Fe(NH4)2(SO4)2, ascorbate, and shaking speed were tested, but no significant improvement was observed. On the other hand, the inclusion of catalase led to the full conversion of porphyra-334 by MysH (FIG. 33B). The Fe(III)-O—O· species is likely one key intermediate in the MysH reaction. Hydrogen peroxide may be released via […] of Fe(III)-O—O· and inhibit the enzyme reaction.
# The optimal MysH reaction conditions were determined to be 50 mM HEPES, pH 7.5, 0.5 uM MysH, 1 mM α-KG, 1 mM ascorbate, 10 uM Fe(NH4)2(SO4)2, and 8 μg/mL catalase. Steady-state kinetic studies were performed with 20 to 1000 uM porphyra-334, and the reactions were carried out at room temperature for 30 min. The reactions followed Michaelis-Menten kinetics (FIG. 34).
compound,measurement,setting,value
"COC1=C(O)CC(O)(CO)CC1=O (centres unmarked) [4-DG, 4-deoxygadusol]",maximal absorbance,[1],294 nm
C[C@H](N)C(=O)O [L-Ala],consumption level of MG in the MysD reaction relative to that with L-Thr (set as 100%),MysD; 0.25 μM MysD,0.4%
N[C@@H](CS)C(=O)O [L-Cys],consumption level of MG in the MysD reaction relative to that with L-Thr (set as 100%),MysD; 0.25 μM MysD,0.9%
N[C@@H](CO)C(=O)O [L-Ser],consumption level of MG in the MysD reaction relative to that with L-Thr (set as 100%),MysD; 0.25 μM MysD,about 12.7%
same,consumption of MG in the MysD reaction,"MysD; 5 mM amino acid, 50 μM MG",complete consumption of MG
C[C@@H](O)[C@H](N)C(=O)O [L-Thr],MG converted into porphyra-334,"MysD; 0.25 μM MysD, 50 μM MG, 5 mM amino acid, 8 min, optimal conditions (37° C., pH 8.5)",about 40%
same,consumption of MG in the MysD reaction,"MysD; 5 mM amino acid, 50 μM MG",complete consumption of MG
"COC1=C(NCC(=O)O)C[C@@](O)(CO)CC1=O [MG, mycosporine-glycine]",extinction coefficient,[2],"28,100 M^−1cm^−1"
same,maximal absorbance,[1],310 nm
"COC1=C(NCC(=O)O)CC(O)(CO)C/C1=N\C(C)C(=O)O (centres unmarked) [MG-Ala, mycosporine-glycine-alanine]",maximal absorbance,[1],around 334 nm
"COC1=C(N)CC(O)(CO)CC1=NC(CO)C(=O)O (centres unmarked) [Palythine-Ser, palythine-Ser]",maximal absorbance,[1],320 nm
COC1=C(N)C[C@@](O)(CO)C/C1=N\[C@H](C(=O)O)C(C)O (some centres unmarked) [palythine-Thr],maximal absorbance,[1],320 nm
COC1=C(NCC(=O)O)C[C@@](O)(CO)CC1=N[C@H](C(=O)O)[C@@H](C)O [porphyra-334],maximal absorbance,[1],around 334 nm
same,Km,MysH,385 µM
same,Vmax,MysH,0.62 µM/min
same,kcat,MysH,0.0207 s⁻¹
mycosporine-amine [M-NH2],maximal absorbance,[1],298 nm
